Read-outs that look alike come from different tables or passages of the source.
Key:
[1] = system: MDA-MB-231 cells; assay: MTT cytotoxicity/photocytotoxicity test on human TNBC MDA-MB-231 cells; assay type: cell-based; details: Homo sapiens
Experimental: The irradiation device used for the irradiation of cell cultures during the assays was a black box equipped with two Philips UVA lamps with an irradiance of 17 mW cm^−2 and a centered emission peak at 365 nm; UVA irradiance was measured using a Waldmann Variocontrol radiometer, equipped with a UVA sensor. The box was maintained at room temperature inside with a fan and the multiwell plates were placed onto a water-refrigerated metal block.
Human triple negative (TNBC) breast MDA-MB-231 carcinoma cells were obtained from American Type Culture Collection (ATCC, Rockville, MD, USA). Human embryonic kidney HEK293 cells were obtained from the European Collection of Cell Cultures (ECACC, Salisbury, UK). Cell lines were maintained in the logarithmic phase at 37 °C in a 5% CO2 atmosphere using the following culture media containing 10% foetal calf serum (Euroclone, Milan, Italy), antibiotics (50 units/mL penicillin and 50 μg/mL streptomycin) and 2 mM l-glutamine: (i) RPMI-1640 medium (Euroclone, Milan, Italy) for MDA-MB-231 4 cells; (ii) DMEM (Euroclone, Milan, Italy) for HEK293 cells.
Cells (5–8 × 10^3 cells/well, dependent upon the growth characteristics of the cell line) were seeded in 96-well microplates in growth medium (100 μL). After 24 h, the medium was removed and replaced with a fresh one containing the compound to be studied at the appropriate concentration. Triplicate cultures were established for each treatment. For photocytotoxicity studies, after 1 h of incubation the medium was replaced with PBS and cells were treated with 2.0 J cm^−2 of UVA light. After irradiation, PBS was replaced with complete proliferation media. For pre-irradiation studies, instead, compounds in PBS were irradiated with 2.0 J cm^−2 of UVA light and subsequently cells were treated with pre-irradiated solutions. Following 24 h, each well was treated with 10 μL of a 5 mg/mL MTT saline solution, and following 5 h of incubation, 100 μL of a sodium dodecyl sulfate (SDS) solution in HCl 0.01 M were added. After an overnight incubation, cell growth inhibition was detected by measuring the absorbance of each well at 570 nm using a Bio-Rad 680 microplate reader. Mean absorbance for each drug dose was expressed as a percentage of the control untreated well absorbance and plotted against drug concentration. IC50 values, the drug concentrations that reduce the mean absorbance at 570 nm to 50% of those in the untreated control wells, were calculated by the four-parameter logistic (4-PL) model. Evaluation was based on means from at least four independent experiments.
The new synthetized pyrrolo[1,2-h][1,7]naphthyridinones 7 and pyrido[2,3-c]pyrrolo[1,2-a]azepinones 8 were screened for their cytotoxicity (in the dark) and photocitotoxicity (upon UVA light irradiation at 2.0 J/cm^2) profile on human TNBC cells, MDA-MB-231. The cytotoxicity/photocytotoxicity parameters, expressed in terms of IC50 values obtained by MTT test after 24 h of drug-exposure, are listed in Table 2.

[2] = MDA-MB-231, in the dark, 1 h pre-treatment, recovered for total 24 h, read-out: Dark IC50 (µM) ± S.D
[3] = light or radiation study, MDA-MB-231, 1 h pre-treatment, UVA 2.0 J/cm^2, recovered for total 24 h, read-out: UVA (2.0 J/cm^2) IC50 (µM) ± S.D

Row | SMILES | melting point | IC50 [1, 2] | IC50 [1, 3]
1 | O=c1[nH]c2c(cc1S(=O)(=O)c1ccccc1)CCn1cccc1-2 [Compound 7a, 3-(benzenesulfonyl)-5,6-dihydropyrrolo[1,2-h][1,7]naphthyridin-2(1H)-one] | 317 to 318 °C | > 50 µM | > 50 µM
2 | CCOC(=O)c1ccc2n1CCc1cc(S(=O)(=O)c3ccccc3)c(=O)[nH]c1-2 [Compound 7b, Ethyl 3-(benzenesulfonyl)-2-oxo-1,2,5,6-tetrahydropyrrolo[1,2-h][1,7]naphthyridine-8-carboxylate] |  | > 50 µM | 21 ± 0.4 µM
3 | CC(C)OC(=O)c1ccc2n1CCc1cc(S(=O)(=O)c3ccccc3)c(=O)[nH]c1-2 [Compound 7c, Propan-2-yl 3-(benzenesulfonyl)-2-oxo-1,2,5,6-tetrahydropyrrolo[1,2-h][1,7]naphthyridine-8-carboxylate] |  | > 50 µM | > 50 µM
4 | Cn1c2c(cc(S(=O)(=O)c3ccccc3)c1=O)CCn1cccc1-2 [Compound 7d, 1-Methyl-3-(benzenesulfonyl)-5,6-dihydropyrrolo[1,2-h][1,7]naphthyridin-2(1H)-one] | 268 to 269 °C | > 50 µM | > 50 µM
5 | CC(C)OC(=O)c1ccc2n1CCc1cc(S(=O)(=O)c3ccccc3)c(=O)n(C)c1-2 [Compound 7f, Propan-2-yl 3-(benzenesulfonyl)-1-methyl-2-oxo-1,2,5,6-tetrahydropyrrolo[1,2-h][1,7]naphthyridine-8-carboxylate] |  | > 50 µM | > 50 µM
6 | COc1nc2c(cc1S(=O)(=O)c1ccccc1)CCn1c(C(=O)OC(C)C)ccc1-2 [Compound 7i, Propan-2-yl 3-(benzenesulfonyl)-2-methoxy-5,6-dihydropyrrolo[1,2-h][1,7]naphthyridine-8-carboxylate] |  | > 50 µM | 7.9 ± 0.5 µM
7 | CCOC(=O)C1(Br)C=CC2=C3NC(=O)C(S(=O)(=O)c4ccccc4)C=C3CCN21 (stereo not shown) [Compound 7j, Ethyl 3-(benzenesulfonyl)-8-bromo-2-oxo-1,2,5,6-tetrahydropyrrolo[1,2-h][1,7]naphthyridine-8-carboxylate] | 196 to 197 °C |  | 
8 | CC(C)OC(=O)C1(Br)C=CC2=C3NC(=O)C(S(=O)(=O)c4ccccc4)C=C3CCN21 (stereo not shown) [Compound 7k, Propan-2-yl 3-(benzenesulfonyl)-8-bromo-2-oxo-1,2,5,6-tetrahydropyrrolo[1,2-h][1,7]naphthyridine-8-carboxylate] | 174 to 175 °C |  | 
9 | CCOC(=O)c1ccc2n1CCCc1cc(S(=O)(=O)c3ccccc3)c(=O)[nH]c1-2 [Compound 8a, Ethyl 3-(benzenesulfonyl)-2-oxo-1,5,6,7-tetrahydro-2H-pyrido[2,3-c]pyrrolo[1,2-a]azepine-9-carboxylate] |  | > 50 µM | > 50 µM
10 | CC(C)OC(=O)c1ccc2n1CCCc1cc(S(=O)(=O)c3ccccc3)c(=O)[nH]c1-2 [Compound 8b, Propan-2-yl 3-(benzenesulfonyl)-2-oxo-1,5,6,7-tetrahydro-2H-pyrido[2,3-c]pyrrolo[1,2-a]azepine-9-carboxylate] |  | > 50 µM | > 50 µM
11 | CCOC(=O)c1ccc2n1CCCc1cc(S(=O)(=O)c3ccccc3)c(=O)n(C)c1-2 [Compound 8c, Ethyl 3-(benzenesulfonyl)-1-methyl-2-oxo-1,5,6,7-tetrahydro-2H-pyrido[2,3-c]pyrrolo[1,2-a]azepine-9-carboxylate] |  | > 50 µM | 24.9 ± 2.8 µM
12 | COc1nc2c(cc1S(=O)(=O)c1ccccc1)CCCn1c(C(=O)OC(C)C)ccc1-2 [Compound 8f, Propan-2-yl 3-(benzenesulfonyl)-2-methoxy-6,7-dihydro-5H-pyrido[2,3-c]pyrrolo[1,2-a]azepine-9-carboxylate] |  | > 50 µM | 23.7 ± 1.5 µM
13 | CCOC(=O)C1(Br)C=CC2=C3NC(=O)C(S(=O)(=O)c4ccccc4)C=C3CCCN21 (stereo not shown) [Compound 8g, Ethyl 3-(benzenesulfonyl)-9-bromo-2-oxo-1,5,6,7-tetrahydro-2H-pyrido[2,3-c]pyrrolo[1,2-a]azepine-9-carboxylate] | 172 to 173 °C |  | 
